Data on 1 molecule can be found in publication PMC11449996 (Clinical Pharmacokinetics, 2024).

For data set [1] the following is noted: cited from earlier work.
Data set [2] has as its system staphylococci. Conditions: cited from earlier work.
The subject of data set [3] is hepatic cytochromes. The following applies: ref 13; cited from earlier work.
In data set [4] the test system is C-reactive protein (C-RP) production. The data set is classed as in vivo, patients.
Data set [5] can be described thus: Population pharmacokinetic model of dalbavancin. The format is in vivo, patients.
For data set [6] the following is noted: cited from earlier work. The source holds these as a separate data set.
Data set [7] relates to MRSA. Conditions: bloodstream infection isolates, 72 US and European medical centers; cited from earlier work.
Data set [8] has as its system Staphylococcus epidermidis. Conditions: bloodstream infection isolates, 72 US and European medical centers; cited from earlier work.
[9] abbreviates: median of 1000 non-parametric bootstrap iterations.
Setting [10] is: population estimate, final PK/PD model.

In brackets after ≈: the same amount, converted by molar mass. Read-outs that look alike come from different tables or passages of the source.

Take `CN[C@H]1C(=O)N[C@@H]2Cc3ccc(cc3)Oc3cc4cc(c3O[C@@H]3O[C@H](C(=O)O)[C@@H](O)[C@H](O)[C@H]3NC(=O)CCCCCCCCC(C)C)Oc3ccc(cc3Cl)[C@@H](O)[C@@H]3NC(=O)[C@H](NC(=O)[C@@H]4NC(=O)[C@@H](NC2=O)c2cc(cc(O)c2Cl)Oc2cc1ccc2O)c1ccc(O)c(c1)-c1c(O[C@H]2O[C@H](CO)[C@@H](O)[C@H](O)[C@@H]2O)cc(O)cc1[C@@H](C(=O)NCCCN(C)C)NC3=O` [dalbavancin, Dalbavancin]: the terminal half-life in data set [1] (intravenous route) is 147 to 258 h. In addition, in data set [1] (ref 5, 25, 26), the “CL, population estimates of previous studies” value was 0.043 to 0.057 L/h and the “V, population estimates of previous studies” value is 15 to 15.9 L. The “administered dose excreted in urine” value in data set [1] (ref 13) is reported as “up to 42%”. The “MIC90, value at which 90% of the wild-type strains are inhibited” value in data set [2] is 0.0625 µg/mL. Moreover, in data set [3], the “drug–drug interactions” value is recorded as “no clinically relevant drug–drug interactions” and the “substrate of the hepatic cytochromes” value is “not a substrate of the hepatic cytochromes”. For the same molecule, the “free IC50 on C-RP production” value in data set [4] (from total IC50 […] mg/L considering plasma protein binding of 93%) was 0.05 µg/mL. Further, in data set [4] (setting [9]), the “IC50, bootstrap median” value was 0.58 µg/mL (≈ 0.319 µM) and the “kout, bootstrap median” value came out at 0.0038 h^–1. Further, the “kout, elimination rate of C-RP concentration in plasma” value in data set [4] (population estimate, final PK/PD model, 211 C-RP plasma concentrations) is 0.0037 h^–1. For the same molecule, the clearance (commonly a measure of how efficiently the substance is removed, as volume per time) in data set [5] (human, plasma, intravenous, 1500 mg) was 0.75 mL/min. In data set [5] (setting [9]), the “CL, non-renal clearance of dalbavancin, bootstrap median” value is 0.028 L/h; the “Q, bootstrap median” value was determined as 0.04 L/h; the “V1, bootstrap median” value is given as 5.98 L; the “V2, bootstrap median” value stood at 9.08 L. Also, the “β_eGFR, bootstrap median” value in data set [5] (setting [9]) worked out at 0.005. Also, in data set [5] (setting [10]), the “V1, volume of distribution of the central compartment” value was 5.93 L and the “V2, volume of distribution of the peripheral compartment” value is 9.55 L. The “β_eGFR, coefficient of eGFR when dalbavancin CL was scaled to eGFR” value in data set [5] (population estimate, final PK/PD model, eGFR by CKD-EPI) is 0.0042. Moreover, the plasma protein binding in data set [6] (ref 13) is on record as 93–98%. The plasma protein binding in data set [6] (ref 15) is recorded as 93%. In data set [7], the MIC90 (commonly the lowest concentration that inhibits either 90% of growth or 90% of the strains tested, depending on the study) was 0.03 µg/mL (≈ 0.0165 µM). Moreover, the MIC90 in data set [8] is 0.06 µg/mL (≈ 0.033 µM).
